Data as given in patent US11957783B2, “Topical immunosensitizers to treat viral and fungal infections” (Squarex, LLC, priority 2018, dated 2024).

Test system: peripheral blood mononuclear cells (PBMC)
Assay: Cytokine and immune-function gene expression of PBMC in vitro (qRT-PCR, 41 immune-related genes)
Assay type: cell-based, human
Settings: for Ratio of absolute IFNG gene expression in group A vs. Groups B + C pooled: group A day 57 after SADBE
Protocol: After a screening visit at which blood was drawn to test for IgG antibody against HSV-1 and subjects were interviewed for inclusion/exclusion criteria, selected subjects returned for blood draws on day 1. After the blood draw on day 1, subjects in group A only were dosed with SADBE. A petrolatum donut was applied with a cotton swab to form about a 1 cm diameter donut on skin on the inner aspect of the upper arm. Then a separate cotton swab was dipped in a 2% SADBE solution (w/v) in DMSO, and the swab was then used to apply about 10-20 mg of solution over about a 1 cm diameter circle within the petrolatum donut. Immediately after application, the application site was covered with TEGADERM. Subjects were advised to remove the TEGADERM and rinse and wipe the spot three hours later. The group A subjects then returned for blood draws on days 15 and 57 and were queried about adverse events on those dates.
PBMC were isolated using SepMate PBMC isolation tubes (Stem Cell Technologies, Vancouver, Canada) and Ficoll-Paque according to the manufacturer's instructions. PBMC were isolated and suspended in negative control medium at 2 million cells/ml. PBMC suspension (100 μL) was added to 100 μL of medium in quadruplicate in 96-well plates. The plates were prepared in advance and stored at −70° C. The wells were in five different conditions in quadruplicate with these final concentrations after addition of the 100 μL of PBMC suspension in negative control medium. • 1. Negative control in medium (RPMI with glutamine and pen/strep, supplemented with 10% human A/B serum). • 2. Medium plus 16 μg/ml protein from heat-inactivated HSV-1-infected Vero cell extracts. • 3. Medium plus heat-inactivated HSV-1 cell-free virus at a final 7.5 million pfu/ml. • 4. Medium plus Candida cell extract. (Greer item number M15A50, 20,000 pnu/ml allergenic extract mixed molds Candida albicans, was diluted 1/50 into medium). • 5. Positive control, medium plus 10 μg/ml concanavalin A.
Two plates were created for each subject at each collection point. One plate was incubated for 2 days at 37° C. in a humidified 5% CO2 atmosphere and then RNA was isolated from the pooled contents of the 4 wells of a given condition for a specific patient, and the RNA was stored at −70° C. and subsequently used for quantitative real time PCR analysis of gene expression of 41 immune-related genes.
As noted above, after 2 days of growth of the PBMC in a 37° C. humidified 5% CO2 incubator in a 96-well plate, four wells of a single condition (negative control, positive control, heat-inactivated HSV-1, HSV-1-infected cell extracts, or Candida extract) with cells from a single subject (200 μL in each well) were pooled, and the RNA was immediately isolated with Trizol reagent and chloroform by Qiagen RNeasy MiniElute clean up kit Qiagen cat #74204, according to manufacturer's instructions into a final volume of 13 μL, and then flash frozen on powdered dry ice, and stored at −70° C. in aliquots of 3 μL for RNA quantification and 10 μL for PCR analysis.
RNA was preamplified with the Qiagen RT2 PreAMP cDNA synthesis kit (Ref. 330451) and custom RT2 PreAmp primer mix (Ref. 330141) starting with about 50 ng RNA according to the procedure of RT preamp cDNA synthesis handbook date March 2011, pages 17-20. The amplification reactions (final 120 μL) were frozen at −70° C. and used for qPCR analysis the next day.
qPCR was done with the Qiagen RT PCR profiler gene analysis kit (catalog number 330451) using RT2 Sybr Green Rox qPCR Mastermix (24) (Part 330523) and Custom RT2 PCR array plates (Ref. 330171). For this 675 μL 2×RT2 SYBR green mastermix, 51 μL pre-AMP synthesis reaction, and 623 μL RNase free water were mixed, and then 25 μL of the mixture was added to 48 wells on the left or right half of the custom PCR plate. The PCR instrument was Applied Biosystems 7900HT fast real time PCR. […]

[1] = PBMC + Candida extract, group A day 57 vs day 1 (pre-dose), one topical 2% SADBE dose

CCCCOc1c(OCCCC)c(=O)c1=O [SADBE, 3,4-Dibutoxy-3-cyclobutene-1,2-dione]
LTA ratio of PBMC absolute gene expression day 57/day 1 (Group A, Neg. control): 0.73
LYZ ratio of PBMC absolute gene expression day 15/day 1 (Group A, Neg. control): 1.18
LYZ ratio of PBMC absolute gene expression day 57/day 1 (Group A, Neg. control): 0.55
MX1 ratio of PBMC absolute gene expression day 15/day 1 (Group A, Neg. control): 0.81
MX1 ratio of PBMC absolute gene expression day 57/day 1 (Group A, Neg. control): 0.47
NOD1 ratio of PBMC absolute gene expression day 15/day 1 (Group A, Neg. control): 1.14
NOD1 ratio of PBMC absolute gene expression day 57/day 1 (Group A, Neg. control): 0.87
SPP1 ratio of PBMC absolute gene expression day 15/day 1 (Group A, Neg. control): 1.35
SPP1 ratio of PBMC absolute gene expression day 57/day 1 (Group A, Neg. control): 2.38
STAT1 ratio of PBMC absolute gene expression day 15/day 1 (Group A, Neg. control): 0.86
STAT1 ratio of PBMC absolute gene expression day 57/day 1 (Group A, Neg. control): 1.29
STAT4 ratio of PBMC absolute gene expression day 15/day 1 (Group A, Neg. control): 0.94
STAT4 ratio of PBMC absolute gene expression day 57/day 1 (Group A, Neg. control): 0.88
TNF ratio of PBMC absolute gene expression day 15/day 1 (Group A, Neg. control): 0.91
TNF ratio of PBMC absolute gene expression day 57/day 1 (Group A, Neg. control): 1.15
TNFSF10 ratio of PBMC absolute gene expression day 15/day 1 (Group A, Neg. control): 0.93
TNFSF10 ratio of PBMC absolute gene expression day 57/day 1 (Group A, Neg. control): 1
TNFSF13B ratio of PBMC absolute gene expression day 15/day 1 (Group A, Neg. control): 1.03
TNFSF13B ratio of PBMC absolute gene expression day 57/day 1 (Group A, Neg. control): 0.67
CCL2 ratio of PBMC absolute gene expression day 15/day 1 (Group A, Virus): 0.88
CCL2 ratio of PBMC absolute gene expression day 57/day 1 (Group A, Virus): 1.71
CCL3 ratio of PBMC absolute gene expression day 15/day 1 (Group A, Virus): 0.84
CCL3 ratio of PBMC absolute gene expression day 57/day 1 (Group A, Virus): 3.73
CCL7 ratio of PBMC absolute gene expression day 15/day 1 (Group A, Virus): 0.72
CCL7 ratio of PBMC absolute gene expression day 57/day 1 (Group A, Virus): 1.81
CCR5 ratio of PBMC absolute gene expression day 15/day 1 (Group A, Virus): 0.87
CCR5 ratio of PBMC absolute gene expression day 57/day 1 (Group A, Virus): 1.35
CD80 ratio of PBMC absolute gene expression day 15/day 1 (Group A, Virus): 0.79
CD80 ratio of PBMC absolute gene expression day 57/day 1 (Group A, Virus): 1.25
CXCL2 ratio of PBMC absolute gene expression day 15/day 1 (Group A, Virus): 0.91
CXCL2 ratio of PBMC absolute gene expression day 57/day 1 (Group A, Virus): 1.58
CXCL5 ratio of PBMC absolute gene expression day 15/day 1 (Group A, Virus): 0.94
CXCL5 ratio of PBMC absolute gene expression day 57/day 1 (Group A, Virus): 2.52
CXCL9 ratio of PBMC absolute gene expression day 15/day 1 (Group A, Virus): 1.42
CXCL9 ratio of PBMC absolute gene expression day 57/day 1 (Group A, Virus): 2.5
CXCL10 ratio of PBMC absolute gene expression day 15/day 1 (Group A, Virus): 0.74
CXCL10 ratio of PBMC absolute gene expression day 57/day 1 (Group A, Virus): 1.00
CXCL11 ratio of PBMC absolute gene expression day 15/day 1 (Group A, Virus): 0.34
CXCL11 ratio of PBMC absolute gene expression day 57/day 1 (Group A, Virus): 0.40
DDX58 ratio of PBMC absolute gene expression day 15/day 1 (Group A, Virus): 0.66
DDX58 ratio of PBMC absolute gene expression day 57/day 1 (Group A, Virus): 0.95
FOXP3 ratio of PBMC absolute gene expression day 15/day 1 (Group A, Virus): 1.27
FOXP3 ratio of PBMC absolute gene expression day 57/day 1 (Group A, Virus): 2.46
GATA3 ratio of PBMC absolute gene expression day 15/day 1 (Group A, Virus): 0.89
GATA3 ratio of PBMC absolute gene expression day 57/day 1 (Group A, Virus): 0.32
ICAM1 ratio of PBMC absolute gene expression day 15/day 1 (Group A, Virus): 1.01
ICAM1 ratio of PBMC absolute gene expression day 57/day 1 (Group A, Virus): 1.07
IFNA1 ratio of PBMC absolute gene expression day 15/day 1 (Group A, Virus): 0.58
IFNA1 ratio of PBMC absolute gene expression day 57/day 1 (Group A, Virus): 1.34
IFNB1 ratio of PBMC absolute gene expression day 15/day 1 (Group A, Virus): 0.78
IFNB1 ratio of PBMC absolute gene expression day 57/day 1 (Group A, Virus): 0.87
IFNG ratio of PBMC absolute gene expression day 15/day 1 (Group A, Virus): 1.91
IFNG ratio of PBMC absolute gene expression day 57/day 1 (Group A, Virus): 11.01
IL1B ratio of PBMC absolute gene expression day 15/day 1 (Group A, Virus): 0.77
IL1B ratio of PBMC absolute gene expression day 57/day 1 (Group A, Virus): 5.09
IL1R1 ratio of PBMC absolute gene expression day 15/day 1 (Group A, Virus): 0.74
IL1R1 ratio of PBMC absolute gene expression day 57/day 1 (Group A, Virus): 0.97
IL1RN ratio of PBMC absolute gene expression day 15/day 1 (Group A, Virus): 0.77
IL1RN ratio of PBMC absolute gene expression day 57/day 1 (Group A, Virus): 1.48
IL2 ratio of PBMC absolute gene expression day 15/day 1 (Group A, Virus): 1.43
IL2 ratio of PBMC absolute gene expression day 57/day 1 (Group A, Virus): 2.11
IL4 ratio of PBMC absolute gene expression day 15/day 1 (Group A, Virus): 0.80
IL4 ratio of PBMC absolute gene expression day 57/day 1 (Group A, Virus): 1.32
IL5 ratio of PBMC absolute gene expression day 15/day 1 (Group A, Virus): 0.76
IL5 ratio of PBMC absolute gene expression day 57/day 1 (Group A, Virus): 0.56
IL8 ratio of PBMC absolute gene expression day 15/day 1 (Group A, Virus): 1.13
IL8 ratio of PBMC absolute gene expression day 57/day 1 (Group A, Virus): 3.3
IL10 ratio of PBMC absolute gene expression day 15/day 1 (Group A, Virus): 0.74
IL10 ratio of PBMC absolute gene expression day 57/day 1 (Group A, Virus): 2.29
IL12A ratio of PBMC absolute gene expression day 15/day 1 (Group A, Virus): 0.94
IL12A ratio of PBMC absolute gene expression day 57/day 1 (Group A, Virus): 1.48
IL12B ratio of PBMC absolute gene expression day 15/day 1 (Group A, Virus): 0.59
IL12B ratio of PBMC absolute gene expression day 57/day 1 (Group A, Virus): 2.08
IL13 ratio of PBMC absolute gene expression day 15/day 1 (Group A, Virus): 1.43
IL13 ratio of PBMC absolute gene expression day 57/day 1 (Group A, Virus): 3.02
IL15 ratio of PBMC absolute gene expression day 15/day 1 (Group A, Virus): 1.01
IL15 ratio of PBMC absolute gene expression day 57/day 1 (Group A, Virus): 1.54
IL16 ratio of PBMC absolute gene expression day 15/day 1 (Group A, Virus): 0.84
IL16 ratio of PBMC absolute gene expression day 57/day 1 (Group A, Virus): 0.82
JAK2 ratio of PBMC absolute gene expression day 15/day 1 (Group A, Virus): 0.84
JAK2 ratio of PBMC absolute gene expression day 57/day 1 (Group A, Virus): 1.26
LTA ratio of PBMC absolute gene expression day 15/day 1 (Group A, Virus): 1.26
LTA ratio of PBMC absolute gene expression day 57/day 1 (Group A, Virus): 1.84
LYZ ratio of PBMC absolute gene expression day 15/day 1 (Group A, Virus): 1.04
LYZ ratio of PBMC absolute gene expression day 57/day 1 (Group A, Virus): 0.53
MX1 ratio of PBMC absolute gene expression day 15/day 1 (Group A, Virus): 0.49
MX1 ratio of PBMC absolute gene expression day 57/day 1 (Group A, Virus): 0.66
NOD1 ratio of PBMC absolute gene expression day 15/day 1 (Group A, Virus): 0.85
NOD1 ratio of PBMC absolute gene expression day 57/day 1 (Group A, Virus): 1.14
SPP1 ratio of PBMC absolute gene expression day 15/day 1 (Group A, Virus): 1.64
SPP1 ratio of PBMC absolute gene expression day 57/day 1 (Group A, Virus): 15.29
STAT1 ratio of PBMC absolute gene expression day 15/day 1 (Group A, Virus): 0.80
STAT1 ratio of PBMC absolute gene expression day 57/day 1 (Group A, Virus): 1.41
STAT4 ratio of PBMC absolute gene expression day 15/day 1 (Group A, Virus): 1.03
STAT4 ratio of PBMC absolute gene expression day 57/day 1 (Group A, Virus): 1.69
TNF ratio of PBMC absolute gene expression day 15/day 1 (Group A, Virus): 0.97
TNF ratio of PBMC absolute gene expression day 57/day 1 (Group A, Virus): 1.19
TNFSF10 ratio of PBMC absolute gene expression day 15/day 1 (Group A, Virus): 0.68
TNFSF10 ratio of PBMC absolute gene expression day 57/day 1 (Group A, Virus): 1.01
TNFSF13B ratio of PBMC absolute gene expression day 15/day 1 (Group A, Virus): 0.77
TNFSF13B ratio of PBMC absolute gene expression day 57/day 1 (Group A, Virus): 1.23
Ratio of absolute IFNG gene expression in group A vs. Groups B + C pooled (HSV-infected cell extracts): 1.896
Ratio of absolute IFNG gene expression in group A vs. Groups B + C pooled (Neg Control medium): 1.190
ratio of absolute expression in A57 vs. A1: CCL2 [1]: 1.16
ratio of absolute expression in A57 vs. A1: CCL3 [1]: 1.79
ratio of absolute expression in A57 vs. A1: CCL7 [1]: 2.03
ratio of absolute expression in A57 vs. A1: CCR5 [1]: 1.42
ratio of absolute expression in A57 vs. A1: CD80 [1]: 1.57
ratio of absolute expression in A57 vs. A1: CXCL2 [1]: 1.1
ratio of absolute expression in A57 vs. A1: CXCL5 [1]: 1.45
ratio of absolute expression in A57 vs. A1: CXCL9 [1]: 14.21
ratio of absolute expression in A57 vs. A1: CXCL10 [1]: 12.8
ratio of absolute expression in A57 vs. A1: CXCL11 [1]: 2.53
ratio of absolute expression in A57 vs. A1: DDX58 [1]: 1.29
